The text below walks through data of US8927530B2, “Therapeutic combination comprising a PLK1 inhibitor and an antineoplastic agent” (priority 2009, dated 2015).

The test system of data set [1] is HT29 human colon cancer tumors. Description: In vivo activity of combination with bevacizumab, HT29 tumors implanted subcutaneously. The following applies: for T-C: delay to reach 1 g tumor.
The test system of data set [2] is AML-PS acute myeloid leukaemia cells. The following applies: for Median Survival Time: Control 34. How it is done: SCID female mice, from Harlan (Italy), were maintained, in agreement with the European Communities Council Directive no. […] 5×10^6 in 0.2 ml AML-PS acute myeloid leukaemia cells were injected intravenously in mice.
Cytarabine was administered by intraperitoneal route at the dose of 75 mg/kg on days 2, 3, 4, 5, 6, 14, 15, 16, 17, 18, 26, 27, 28, 29, 30, 38, 39, 40, 41 42. […] Body weight was measured every 3 days. The effect of the antitumor treatment was evaluated determining the Median Survival Time of treated animals respect to control group.

The subject of data set [3] is HT29 human colon cancer tumors. The following applies: for T-C: delay to reach 1 g tumor. Here is the method: Balb, Nu/Nu male mice, from Harlan (Italy), were maintained, in agreement with the European Communities Council Directive no. […] Fragments of HT29 human colon cancer tumors were implanted subcutaneously. The treatment started when tumors were palpable. […] Tumor growth and body weight were measured every 3 days. Tumor growth was assessed by caliper. The two diameters were recorded and the tumor weight was calculated according to the following formula: length (mm)×width^2/2. […] This delay (T-C value) was defined as the difference of time (in days) required for the treatment group (T) and the control group (C) tumors to reach a predetermined size (1 g). Sinergy was identified when T-C of drug combination is >of addition of T-C value of single agents, additivity is identified when T-C value of drug combination is equal to addition of T-C value of single agents.
(§1) Toxicity was evaluated on the basis of body weigh reduction.

Data set [4] deals with HT29 human colon cancer tumors. Particulars: for T-C: delay to reach 1 g tumor. How it is done:
Balb, Nu/Nu male mice, from Harlan (Italy), were maintained, in agreement with the European Communities Council Directive no.
Fragments of HT29 human colon cancer tumors were implanted subcutaneously. The treatment started when tumors were palpable. […] Tumor growth and body weight were measured every 3 days. Tumor growth was assessed by caliper. The two diameters were recorded and the tumor weight was calculated according to the following formula: length (mm)×width^2/2. […] This delay (T-C value) was defined as the difference of time (in days) required for the treatment group (T) and the control group (C) tumors to reach a predetermined size (1 g). Sinergy was identified when T-C of drug combination is >of addition of T-C value of single agents.
as §1
This is another data set of the same source.

Setting [5] is: male, Balb Nu/Nu, mouse, in vivo, po, 45 mg/kg.
Setting [6] is: Compound of formula (I) 45 mg/kg oral, day 2, 3, 4, 6, 7, 8.

Where two headings read alike, the source gives them in different places.

With `CN1CCN(c2ccc(OC(F)(F)F)c(Nc3ncc4c(n3)-c3c(c(C(N)=O)nn3CCO)CC4)c2)CC1` [Compound of formula (I)], the “T-C” value came to 8.5 days in data set [1] (Compound of formula (I) 45 mg/kg oral, day 2, 3, 4, 6, 7, 8, 10, 11, 12); 16.8 days in data set [1] (Compound of formula (I) 60 mg/kg oral, day 2, 3, 4, 6, 7, 8, 10, 11, 12); 10.3 days in data set [3] (setting [6]); 10.3 days in data set [4] (setting [6]). The Toxicity is listed as 0/7 in data set [1] (setting [5]); 0/7 in data set [1] (male, Balb Nu/Nu, mouse, in vivo, po, 60 mg/kg); 0/7 in data set [2] (female, SCID, mouse, in vivo, po, 120 mg/kg); 0/7 in data set [3] (setting [5]); 0/7 in data set [4] (setting [5]). Besides, the “Median Survival Time” value in data set [2] (Compound of formula (I) 120 mg/kg oral, day 2, 3, 14, 15, 26, 27, 38, 39) is 49.5.
As to `CCc1c2c(nc3ccc(OC(=O)N4CCC(N5CCCCC5)CC4)cc13)-c1cc3c(c(=O)n1C2)COC(=O)[C@]3(O)CC` [CPT11, reference compound], the “T-C” value in data set [4] (CPT11 45 mg/kg intravenous, days 1, 5, 9) was 12.3 days.
With `Nc1ccn([C@@H]2O[C@H](CO)[C@@H](O)[C@@H]2O)c(=O)n1` [Cytarabine, cytarabine, reference compound], the “Median Survival Time” value in data set [2] (cytarabine 75 mg/kg intraperitoneal, days 2-6, 14-18, 26-30, 38-42) came out at 66.5.
Regarding `O=c1[nH]cc(F)c(=O)[nH]1` [5FU, 5-fluorouracil, reference compound], in data set [3] (5FU 50 mg/kg intravenous, days 1, 5, 9), the “T-C” value is 11.4 days.
Take bevacizumab [reference compound]: the Toxicity in data set [1] (Bevacizumab 20 mg/kg, intravenous route (footnote), days 1, 5, 9, 13, body weight reduction) is recorded as 0/7. The “T-C” value in data set [1] (Bevacizumab 20 mg/kg, intravenous route (footnote), days 1, 5, 9, 13) is 4.7 days.
